In patent publication EP4389156A1, “RA[…] LIGAND COMPOUNDS AND PRECURSORS THEREOF” (Technische Universität München, priority 2022, dated 2024):

Key:
LNCaP cells = assay: PSMA-mediated internalization into LNCaP cells; assay type: cell-based; conditions: 1 h
Experimental: Competitive binding studies were carried out in analogy to a previously reported procedure. As a modification the non-radiolabeled standard competitor (((S)-1-carboxy-5-(4-(iodo)benzamido)pentyl)carbamoyl)-L-glutamic acid (IBA-KuE) was applied in increasing concentrations (10^-5 - 10^-11 M/well, n = 3 each) whereas the novel PSMA-binding compounds of interest were applied as ^99mTc-labeled radioligands (0.2 nM/well). In this inversed experimental approach, higher values correspond to higher affinities and are referred to as inverse IC50. Poly-L-lysine coated 24-well plates were used (n = 3). Data are given as mean ± SD. To determine the cellular uptake of the ^99mTc-labeled PSMA ligands into LNCaP cells by means of PSMA-mediated internalization at 1 h, a previously reported protocol was applied with assay concentrations of 1.0 nM and 0.2 nM for ^99mTc-labeled PSMA ligands and the reference compound [^125I]IBA-KuE, respectively. Data are corrected for non-specific binding and normalized to the specific internalization of the reference. Results are given as mean ± SD.

[1] = Lipophilicity (logD7.4), shake-flask method; assay type: physicochemical; conditions: n-octanol/PBS (pH 7.4), n = 8, mean ± SD
Experimental: The lipophilicity of ^99mTc-labeled PSMA ligands, expressed as distribution coefficient (logD7.4), was determined using the shake-flask method. A solution of approximately 1 MBq of radioligand in 1 mL of a 1:1 mixture of PBS (pH = 7.4) and n-octanol (n = 8) was vortexed vigorously for 3 min. After centrifugation at 9000 rpm for 5 min aliquots of both phases (200 µL n-octanol, 50 µL PBS) were collected and the activity was quantified in a γ-counter. logD7.4 values were calculated as decadic logarithm of the activity concentration ratio between the n-octanol phase and the aqueous phase. Data are given as mean ± standard deviation (SD). Binding to human plasma was determined by incubation of radioligands in human plasma (2 nM concentration, 37 °C for 30 min) and subsequent ultrafiltration (250 µL aliquots, 3200 rpm, 40 min) in Centrifree® ultrafiltration devices (Merck Millipore, Cork, Ireland). The fraction bound to human plasma proteins was calculated as the ratio of unfiltered activity and the total activity in the ultrafiltration device. Measurements were performed in three independent experiments, each with two replicates (n = 6, data are given as mean ± SD). All values were corrected for non-specific binding (control experiments in PBS).

With CC(C)(C)[Si](O)(c1ccc(C(=O)NC[C@@H](NC(=O)[C@@H](CCC(=O)O)NC(=O)C(CNCCN)CNCCN)C(=O)N[C@H](CCCCNC(=O)CCC(=O)NCCC[C@@H](NC(=O)CC[C@H](NC(=O)N[C@@H](CCC(=O)O)C(=O)O)C(=O)O)C(=O)O)C(=O)O)cc1)C(C)(C)C.[O]=[99Tc+]=[O] [[^99mTc]Tc-N4-PSMA-12] the “internalization (% IBA-KuE)” value (LNCaP cells; 37°C, n = 3, as percentage of reference [125I]IBA-KuE, mean ± SD) was 311 ± 16%, the “fold higher internalization than [^99mTc]Tc-N4-PSMA-13” value (LNCaP cells; relative to [^99mTc]Tc-N4-PSMA-13) was 1.9 fold and the “fold higher internalization than [^99mTc]Tc-N4-PSMA-21” value (LNCaP cells; relative to [^99mTc]Tc-N4-PSMA-21) was 1.7 fold. For the same compound, the “fold higher internalization than [^99mTc]Tc-PSMA-I&S” value (LNCaP cells; relative to [^99mTc]Tc-PSMA-I&S) was 1.3 fold and the logD7.4 [1] was -3.35 ± 0.05.
